Experimental data taken from ChEMBL document CHEMBL4680207, “The discovery, design and synthesis of potent agonists of adenylyl cyclase type 2 by virtual screening combining biological evaluation” (Eur J Med Chem, 2020).
Activity calls are given as the source filed them. No cut-off for these calls is given here.

What was measured:
Format in all cases: cell-based
[1] = biological target: T1, Adenylate cyclase type 2 (Homo sapiens, UniProt Q08462); test: Agonist activity at recombinant human AC2 expressed in HEK293 cells assessed as increase in cAMP level measured after 30 mins by LANCE Ultra cAMP Detection kit method
[2] = biological target: T1, Adenylate cyclase type 2; test: Agonist activity at recombinant human AC2 expressed in HEK293 cells assessed as increase in cAMP level by measuring cAMP level at 50 uM measured after 30 mins by LANCE Ultra cAMP Detection kit method relative to control
[3] = biological target: T1, Adenylate cyclase type 2; test: Agonist activity at recombinant human AC2 expressed in HEK293 cells assessed as increase in cAMP level at 50 uM measured after 30 mins by LANCE Ultra cAMP Detection kit method; settings: filed as agonist
[4] = biological target: Adenylate cyclase type 8 (Homo sapiens, UniProt P40145); test: Agonist activity at recombinant human AC8 expressed in HEK293 cells assessed as increase in cAMP level at 50 uM measured after 30 mins by LANCE Ultra cAMP Detection kit method; settings: hek293, 0.5 h
Sequence of Adenylate cyclase type 8 (P40145 whole entry): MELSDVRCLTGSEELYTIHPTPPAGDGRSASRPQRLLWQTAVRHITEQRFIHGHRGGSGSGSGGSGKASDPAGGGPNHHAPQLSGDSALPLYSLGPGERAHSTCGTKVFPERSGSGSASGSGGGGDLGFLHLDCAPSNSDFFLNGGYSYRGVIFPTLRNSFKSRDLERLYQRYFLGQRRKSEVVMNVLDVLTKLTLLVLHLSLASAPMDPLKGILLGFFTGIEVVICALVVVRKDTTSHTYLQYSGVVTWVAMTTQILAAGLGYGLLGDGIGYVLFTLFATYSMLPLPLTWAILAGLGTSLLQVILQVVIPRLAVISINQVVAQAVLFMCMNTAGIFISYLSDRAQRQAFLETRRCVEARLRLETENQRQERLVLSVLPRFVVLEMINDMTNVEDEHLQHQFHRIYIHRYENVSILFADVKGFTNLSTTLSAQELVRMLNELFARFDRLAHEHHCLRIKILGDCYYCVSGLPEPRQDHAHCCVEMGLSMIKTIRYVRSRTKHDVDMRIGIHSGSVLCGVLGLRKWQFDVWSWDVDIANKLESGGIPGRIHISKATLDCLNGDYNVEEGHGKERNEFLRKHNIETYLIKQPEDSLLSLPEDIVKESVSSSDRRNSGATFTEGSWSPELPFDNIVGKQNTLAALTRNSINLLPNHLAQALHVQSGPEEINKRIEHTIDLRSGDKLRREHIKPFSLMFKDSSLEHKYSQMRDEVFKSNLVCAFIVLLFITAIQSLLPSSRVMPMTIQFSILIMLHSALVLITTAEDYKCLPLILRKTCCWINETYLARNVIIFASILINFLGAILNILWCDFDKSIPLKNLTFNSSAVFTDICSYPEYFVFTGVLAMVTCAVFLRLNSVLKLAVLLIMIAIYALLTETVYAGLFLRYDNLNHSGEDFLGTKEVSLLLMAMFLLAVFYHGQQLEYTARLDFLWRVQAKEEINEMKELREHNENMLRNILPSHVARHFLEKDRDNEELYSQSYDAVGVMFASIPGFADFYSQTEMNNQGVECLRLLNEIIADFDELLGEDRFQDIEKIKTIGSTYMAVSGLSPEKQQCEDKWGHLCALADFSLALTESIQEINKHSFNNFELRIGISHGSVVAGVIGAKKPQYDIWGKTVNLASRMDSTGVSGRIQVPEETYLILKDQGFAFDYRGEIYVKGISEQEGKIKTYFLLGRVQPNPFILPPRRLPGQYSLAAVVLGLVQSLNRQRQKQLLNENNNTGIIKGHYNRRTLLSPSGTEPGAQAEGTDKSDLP

T1 sequence (Q08462 whole entry): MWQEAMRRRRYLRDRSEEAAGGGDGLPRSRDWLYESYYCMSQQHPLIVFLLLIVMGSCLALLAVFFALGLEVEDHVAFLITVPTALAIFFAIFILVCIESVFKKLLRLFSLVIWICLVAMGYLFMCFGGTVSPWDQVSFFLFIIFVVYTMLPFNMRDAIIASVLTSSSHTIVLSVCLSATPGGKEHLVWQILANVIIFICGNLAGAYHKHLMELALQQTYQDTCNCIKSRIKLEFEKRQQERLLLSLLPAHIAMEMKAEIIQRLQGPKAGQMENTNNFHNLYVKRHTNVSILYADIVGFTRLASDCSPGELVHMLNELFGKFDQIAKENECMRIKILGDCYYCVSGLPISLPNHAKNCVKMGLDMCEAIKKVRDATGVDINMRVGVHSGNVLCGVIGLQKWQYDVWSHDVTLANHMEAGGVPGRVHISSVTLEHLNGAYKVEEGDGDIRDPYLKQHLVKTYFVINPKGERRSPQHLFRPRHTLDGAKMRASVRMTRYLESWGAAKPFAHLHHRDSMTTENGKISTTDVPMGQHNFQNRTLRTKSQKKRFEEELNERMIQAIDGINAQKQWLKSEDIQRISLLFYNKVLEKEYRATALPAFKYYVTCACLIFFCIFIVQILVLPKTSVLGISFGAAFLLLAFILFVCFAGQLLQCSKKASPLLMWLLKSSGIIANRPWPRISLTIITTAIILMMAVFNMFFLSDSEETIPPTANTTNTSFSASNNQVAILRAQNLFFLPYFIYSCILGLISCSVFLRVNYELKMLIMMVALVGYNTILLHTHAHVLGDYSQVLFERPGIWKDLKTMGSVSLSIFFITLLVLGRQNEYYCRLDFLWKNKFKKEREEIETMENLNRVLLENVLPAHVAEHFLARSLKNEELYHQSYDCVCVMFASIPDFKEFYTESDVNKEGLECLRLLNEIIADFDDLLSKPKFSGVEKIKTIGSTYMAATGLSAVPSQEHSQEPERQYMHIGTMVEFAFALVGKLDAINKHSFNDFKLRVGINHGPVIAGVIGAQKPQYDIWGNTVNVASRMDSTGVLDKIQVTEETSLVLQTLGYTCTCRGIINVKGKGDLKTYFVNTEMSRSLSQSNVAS

| EC50 [1] [µM] | Activity ([2]; filed as agonist) [%] | Compound | also measured |
| --- | --- | --- | --- |
| 17.1 | 93.6 | COc1ccc(N2C(=O)[C@H]3[C@@H](c4ccc(C)cc4)OC4(C(=O)c5ccccc5C4=O)[C@H]3C2=O)cc1 | – |
| 0.67 | 95.9 | CCc1ccc([C@H]2OC3(C(=O)c4ccccc4C3=O)[C@H]3C(=O)N(c4ccc(C)cc4)C(=O)[C@@H]23)cc1 | – |
| 8.1 | 103 | O=C1[C@H]2[C@@H](c3ccccc3)OC3(C(=O)c4ccccc4C3=O)[C@H]2C(=O)N1c1cccc(Cl)c1 | Activity [3]: Active; Activity ([1]; filed as agonist): Dose-dependent effect |
| – | – | O=C1[C@H]2[C@@H](c3ccc(-c4ccccc4)cc3)OC3(C(=O)c4ccccc4C3=O)[C@H]2C(=O)N1c1ccccc1Cl | Activity [2]: 5.04% |
| – | – | COc1ccc([C@H]2OC3(C(=O)c4ccccc4C3=O)[C@H]3C(=O)N(c4ccccc4F)C(=O)[C@@H]23)cc1 | Activity [2]: 0.25% |
| – | – | CCOC(=O)C1(Cc2ccc(Cl)cc2Cl)C(=O)Nc2ccccc21 (stereo not given) | Activity [4]: Active |
| – | – | Cc1cc(C)cc(N2C(=O)[C@H]3[C@@H](c4ccccc4Cl)OC4(C(=O)c5ccccc5C4=O)[C@H]3C2=O)c1 | Activity [2]: 7.14% |
| 0.345 | 59.1 | Cc1ccc([C@H]2OC3(C(=O)c4cccc(F)c4C3=O)[C@H]3C(=O)N(c4ccccc4Cl)C(=O)[C@@H]23)cc1 (mixture of isomers) | – |
| – | – | Cc1ccccc1[C@H]1OC2(C(=O)c3ccccc3C2=O)[C@H]2C(=O)N(c3ccccc3Cl)C(=O)[C@@H]12 | Activity [2]: 30.7% |
| 11.6 | 76 | Cc1ccc([C@H]2OC3(C(=O)c4cccc(Br)c4C3=O)[C@H]3C(=O)N(c4ccccc4Cl)C(=O)[C@@H]23)cc1 (mixture of isomers) | – |
| 0.3 | 98.1 | Cc1ccc([C@H]2OC3(C(=O)c4ccc(C)cc4C3=O)[C@H]3C(=O)N(c4ccccc4Cl)C(=O)[C@@H]23)cc1 (mixture of isomers) | – |
| 0.53 | 100 | O=C1[C@H]2[C@@H](c3ccc(Cl)cc3)OC3(C(=O)c4ccccc4C3=O)[C@H]2C(=O)N1c1ccc(F)cc1 | – |
| – | – | CC[C@H]1OC2(C(=O)c3ccccc3C2=O)[C@H]2C(=O)N(c3ccccc3Cl)C(=O)[C@@H]12 | Activity [2]: 0% |
| 1.08 | 59.3 | Cc1ccc([C@H]2OC3(C(=O)c4cccc(C)c4C3=O)[C@H]3C(=O)N(c4ccccc4Cl)C(=O)[C@@H]23)cc1 (mixture of isomers) | – |
| 39.3 | 91 | CCOc1ccc(N2C(=O)[C@H]3[C@@H](c4ccc(F)cc4)OC4(C(=O)c5ccccc5C4=O)[C@H]3C2=O)cc1 | – |
| 32.3 | 82.3 | CCOc1ccc(N2C(=O)[C@H]3[C@@H](c4ccccc4)OC4(C(=O)c5ccccc5C4=O)[C@H]3C2=O)cc1 | – |
| 3.12 | 101 | Cc1ccc(Cl)cc1N1C(=O)[C@H]2[C@@H](c3ccccc3)OC3(C(=O)c4ccccc4C3=O)[C@H]2C1=O | – |
| 3.44 | 64.9 | Cc1ccc([C@H]2OC3(C(=O)c4ccccc4C3=O)[C@H]3C(=O)N(C4CCCC4)C(=O)[C@@H]23)cc1 | – |
| 0.301 | 88.5 | Cc1ccc([C@H]2OC3(C(=O)c4cccc(Cl)c4C3=O)[C@H]3C(=O)N(c4ccccc4Cl)C(=O)[C@@H]23)cc1 (mixture of isomers) | – |
| 1.3 | 89.3 | CC(C)c1ccc([C@H]2OC3(C(=O)c4ccccc4C3=O)[C@H]3C(=O)N(c4ccc(F)cc4)C(=O)[C@@H]23)cc1 | – |

| EC50 [1] [µM] | Activity ([2]; filed as agonist) [%] | Compound | also measured |
| --- | --- | --- | --- |
| 1.29 | 69.5 | Cc1ccc([C@H]2OC3(C(=O)c4ccccc4C3=O)[C@H]3C(=O)N(C4CCCCC4)C(=O)[C@@H]23)cc1 | – |
| 3.37 | 70.8 | Cc1ccc([C@H]2OC3(C(=O)c4ccccc4C3=O)[C@H]3C(=O)N(C4CC4)C(=O)[C@@H]23)cc1 | – |
| 1.2 | 103 | COc1ccc(OC)c(N2C(=O)[C@H]3[C@@H](c4ccc(C)cc4)OC4(C(=O)c5ccccc5C4=O)[C@H]3C2=O)c1 | – |
| – | – | CCc1ccccc1N1C(=O)[C@H]2[C@@H](c3ccccc3Cl)OC3(C(=O)c4ccccc4C3=O)[C@H]2C1=O | Activity [2]: 20% |
| – | 84.7 | Cc1cccc([C@H]2OC3(C(=O)c4ccccc4C3=O)[C@H]3C(=O)N(c4cccc(C)c4)C(=O)[C@@H]23)c1 | – |
| – | – | O=C1[C@H]2[C@@H](c3ccc4ccccc4c3)OC3(C(=O)c4ccccc4C3=O)[C@H]2C(=O)N1c1ccccc1Cl | Activity [2]: 0% |
| 10.8 | 97.7 | CCOc1ccc(N2C(=O)[C@H]3[C@@H](c4ccc(C)cc4)OC4(C(=O)c5ccccc5C4=O)[C@H]3C2=O)cc1 | – |
| – | 56.7 | Cc1ccc([C@H]2OC3(C(=O)c4ccccc4C3=O)[C@H]3C(=O)N(CC(C)C)C(=O)[C@@H]23)cc1 | – |
| 0.17 | 93.6 | Cc1ccc([C@H]2OC3(C(=O)c4ccccc4C3=O)[C@H]3C(=O)N(c4ccccc4Cl)C(=O)[C@@H]23)cc1 | – |
| 0.43 | 102 | CCc1ccc(N2C(=O)[C@H]3[C@@H](c4ccc(Cl)cc4)OC4(C(=O)c5ccccc5C4=O)[C@H]3C2=O)cc1 | – |
| 0.21 | 104 | Cc1ccc([C@H]2OC3(C(=O)c4ccccc4C3=O)[C@H]3C(=O)N(c4ccc(C)c(C)c4)C(=O)[C@@H]23)cc1 | – |
| – | 44.5 | CC/C=C(\CCC)[C@H]1OC2(C(=O)c3ccccc3C2=O)[C@H]2C(=O)N(c3ccccc3Cl)C(=O)[C@@H]12 | – |
| 1.6 | 97.8 | COc1cccc([C@H]2OC3(C(=O)c4ccccc4C3=O)[C@H]3C(=O)N(c4ccc(C)cc4)C(=O)[C@@H]23)c1 | – |
| – | – | Cc1ccc([C@H]2OC3(C(=O)c4ccccc4C3=O)[C@H]3C(=O)N(C4CCC4)C(=O)[C@@H]23)cc1 | Activity [2]: 0% |
| 1.64 | 99.5 | Cc1ccc([C@H]2OC3(C(=O)c4ccccc4C3=O)[C@H]3C(=O)N(c4ccc(F)cc4)C(=O)[C@@H]23)cc1 | – |
| 0.96 | 84.6 | COc1cccc(N2C(=O)[C@H]3[C@@H](c4ccc(C)cc4)OC4(C(=O)c5ccccc5C4=O)[C@H]3C2=O)c1 | – |
| 3.53 | 99.9 | O=C1[C@H]2[C@@H](c3ccc(Cl)cc3)OC3(C(=O)c4ccccc4C3=O)[C@H]2C(=O)N1c1cccc(F)c1 | – |
| 0.31 | 96.9 | Cc1cc(C)cc(N2C(=O)[C@H]3[C@@H](c4ccc(Cl)cc4)OC4(C(=O)c5ccccc5C4=O)[C@H]3C2=O)c1 | – |
| – | – | O=C1[C@H]2[C@@H](Cc3ccccc3)OC3(C(=O)c4ccccc4C3=O)[C@H]2C(=O)N1c1ccccc1Cl | Activity [2]: 0% |
| 0.692 | 80.8 | Cc1ccc([C@H]2OC3(C(=O)c4ccc(F)cc4C3=O)[C@H]3C(=O)N(c4ccccc4Cl)C(=O)[C@@H]23)cc1 (mixture of isomers) | – |

| EC50 [1] [µM] | Activity ([2]; filed as agonist) [%] | Compound | also measured |
| --- | --- | --- | --- |
| 0.236 | 96.2 | Cc1ccc([C@H]2OC3(C(=O)c4ccc(Cl)cc4C3=O)[C@H]3C(=O)N(c4ccccc4Cl)C(=O)[C@@H]23)cc1 (mixture of isomers) | – |
| 6.81 | 57.4 | Cc1cccc([C@H]2OC3(C(=O)c4ccccc4C3=O)[C@H]3C(=O)N(c4ccccc4Cl)C(=O)[C@@H]23)c1 | – |
| – | – | Cc1ccc([C@H]2OC3(C(=O)c4ccccc4C3=O)[C@H]3C(=O)N(C(C)(C)C)C(=O)[C@@H]23)cc1 | Activity [2]: 31% |
| 5.96 | 103 | COc1cc(C)ccc1N1C(=O)[C@H]2[C@@H](c3cccc(C)c3)OC3(C(=O)c4ccccc4C3=O)[C@H]2C1=O | – |
| 0.52 | 103 | Cc1ccc([C@H]2OC3(C(=O)c4ccccc4C3=O)[C@H]3C(=O)N(c4ccc(F)c(Cl)c4)C(=O)[C@@H]23)cc1 | – |
| – | – | CC(C)[C@H]1OC2(C(=O)c3ccccc3C2=O)[C@H]2C(=O)N(c3ccccc3Cl)C(=O)[C@@H]12 | Activity [2]: 27.2% |
| 4.29 | 59.6 | CCC[C@H]1OC2(C(=O)c3ccccc3C2=O)[C@H]2C(=O)N(c3ccccc3Cl)C(=O)[C@@H]12 | – |
| 3.08 | 62 | Cc1ccc([C@H]2OC3(C(=O)c4ccccc4C3=O)[C@H]3C(=O)N(C)C(=O)[C@@H]23)cc1 | – |
| 24.8 | 100 | CCOc1ccc([C@H]2OC3(C(=O)c4ccccc4C3=O)[C@H]3C(=O)N(c4ccc(C)cc4)C(=O)[C@@H]23)cc1 | – |
| 0.77 | 107 | Cc1ccc([C@H]2OC3(C(=O)c4ccccc4C3=O)[C@H]3C(=O)N(c4ccc(C)cc4F)C(=O)[C@@H]23)cc1 | – |
| – | 55.6 | O=C1[C@H]2[C@@H](C3CCCCC3)OC3(C(=O)c4ccccc4C3=O)[C@H]2C(=O)N1c1ccccc1Cl | – |
| – | 44.7 | CC(C)=C[C@H]1OC2(C(=O)c3ccccc3C2=O)[C@H]2C(=O)N(c3ccccc3Cl)C(=O)[C@@H]12 | – |
| 2.06 | 91.5 | O=C1[C@H]2[C@@H](c3ccccc3)OC3(C(=O)c4ccccc4C3=O)[C@H]2C(=O)N1c1ccc(Cl)cc1 | – |
| 7.34 | 59 | Cc1ccc([C@H]2OC3(C(=O)c4ccccc4C3=O)[C@H]3C(=O)N(C(C)C)C(=O)[C@@H]23)cc1 | – |
| – | – | O=C1[C@H]2[C@@H](C3CC3)OC3(C(=O)c4ccccc4C3=O)[C@H]2C(=O)N1c1ccccc1Cl | Activity [2]: 0% |
| – | 80.3 | Cc1ccc(N2C(=O)[C@H]3[C@@H](c4ccccc4)OC4(C(=O)c5ccccc5C4=O)[C@H]3C2=O)cc1Cl | – |
| 5.05 | 97.9 | Cc1ccc(N2C(=O)[C@H]3[C@@H](c4cccc(Cl)c4)OC4(C(=O)c5ccccc5C4=O)[C@H]3C2=O)cc1 | – |
| – | – | O=C1[C@H]2[C@@H](CCc3ccccc3)OC3(C(=O)c4ccccc4C3=O)[C@H]2C(=O)N1c1ccccc1Cl | Activity [2]: 32% |
| 0.75 | 96.4 | Cc1ccc([C@H]2OC3(C(=O)c4ccccc4C3=O)[C@H]3C(=O)N(c4ccc(C)c(Cl)c4)C(=O)[C@@H]23)cc1 | – |
